Paper PMC3152678 (Bioorganic & medicinal chemistry, 2011)

Experiments:
LasR [1] = target: T1, LasR (Pseudomonas aeruginosa, UniProt P25084); assay: LasR reporter gene agonism assay in P. aeruginosa PA01 MW1; assay type: cell-based; details: P. aeruginosa LasR reporter strain
LasR [2] = target: T1, LasR; assay: LasR reporter gene agonism assay in E. coli DH5α; assay type: cell-based; details: E. coli LasR reporter strain
TraR [3] = target: T2, TraR (Agrobacterium tumefaciens, UniProt P33905); assay: TraR antagonism assay in A. tumefaciens WCF; assay type: cell-based; details: 10 μM, in the presence of OOHL
T2 sequence (P33905 whole entry): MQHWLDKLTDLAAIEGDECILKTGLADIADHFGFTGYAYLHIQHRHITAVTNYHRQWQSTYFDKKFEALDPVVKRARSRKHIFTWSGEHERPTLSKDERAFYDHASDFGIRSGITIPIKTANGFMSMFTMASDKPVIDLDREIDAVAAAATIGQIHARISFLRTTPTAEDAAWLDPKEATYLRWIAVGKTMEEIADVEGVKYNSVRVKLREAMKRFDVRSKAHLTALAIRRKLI

[4] = assay type: physicochemical; details: Luria-Bertani medium, 37 °C; pseudo first-order
immune response = details: mice; cited from earlier work
TraR [5] = target: T2, TraR; assay type: cell-based; details: dose response
[6] = over the course of a week; cited from earlier work
LuxR = LuxR (Aliivibrio fischeri, UniProt P35327); assay: LuxR antagonism assay in V. fischeri ESI 114; assay type: cell-based, Vibrio fischeri
LuxR, sequence (P35327 whole entry): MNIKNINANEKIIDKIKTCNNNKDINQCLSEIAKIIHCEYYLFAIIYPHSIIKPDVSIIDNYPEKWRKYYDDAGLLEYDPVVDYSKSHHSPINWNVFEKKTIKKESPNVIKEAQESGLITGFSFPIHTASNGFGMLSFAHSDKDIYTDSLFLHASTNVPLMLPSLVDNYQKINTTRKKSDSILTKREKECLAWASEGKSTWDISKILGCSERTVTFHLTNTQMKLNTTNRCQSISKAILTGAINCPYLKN

LasR [7] = target: T1, LasR; assay: LasR reporter gene antagonism assay in E. coli DH5α; assay type: cell-based; details: E. coli reporter strain

T1 sequence (P25084 whole entry): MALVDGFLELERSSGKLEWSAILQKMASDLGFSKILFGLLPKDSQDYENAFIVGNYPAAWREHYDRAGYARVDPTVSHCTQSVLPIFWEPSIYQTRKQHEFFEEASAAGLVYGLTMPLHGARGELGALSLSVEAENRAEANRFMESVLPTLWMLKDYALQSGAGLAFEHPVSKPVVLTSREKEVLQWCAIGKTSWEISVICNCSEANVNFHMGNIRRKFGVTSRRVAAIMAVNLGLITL

Q: For CCCC(=O)CC(=O)N[C@H]1CCSC1=O [Compound 12], which “EC50 fold higher / fold less active than OdDHL, P. aeruginosa LasR” value (LasR [1]) is on record?
A: Its value is ~ 10 fold.

Q: And the “EC50 fold higher / fold less active than OdDHL, E. coli LasR” value (LasR [2])?
A: The value was ~ 10 fold.

Q: Which “TraR agonism in the antagonism assay (more than OOHL alone)” value (shortened to “TraR agonism in the antagonism assay”) (TraR [3]) does the source give for COc1ccc(CC(=O)NC2CCSC2=O)cc1 (stereo not shown) [Compound 28] here?
A: The value was 24%.

Q: With CCCC(=O)N[C@H]1CCSC1=O [Compound 19] as the compound, how does the “TraR agonism in the antagonism assay” value (TraR [3]) read?
A: Its value is “over 70%”.

Q: With CCCCCCCCCC(=O)CC(=O)N[C@H]1CCSC1=O [Compound 15] as the compound, how does the “slope of natural log of percent of positive control vs time” value [4] read?
A: The value was −0.01025 ± 0.0004.

Q: And the “times less of an immune response than the native OdDHL” value (immune response)?
A: Its value is “approximately 40 times”.

Q: Which “TraR agonism in the antagonism assay” value (TraR [3]) does the source give for CCCCCC(=O)N[C@H]1CCSC1=O [Compound 20, N-hexanoyl thiolactone] here?
A: The value was “over 70%”.

Q: Which “EC50 fold higher / fold less active than OdDHL, P. aeruginosa LasR” value (LasR [1]) does the source give for CCCCCCCCCCCC(=O)N[C@H]1CCSC1=O [Compound 23, N-dodecanoyl thiolactone] here?
A: Its value is ~ 10 fold.

Q: And the “EC50 fold higher / fold less active than OdDHL, E. coli LasR” value (LasR [2])?
A: The value was ~ 100 fold.

Q: Which “fold less active than OOHL (TraR agonism)” value (TraR [5]) does the source give for CCCCCC(=O)CC(=O)N[C@H]1CCSC1=O [Compound 18] here?
A: Its value is 100 fold.

Q: What does the source list for CCCCCCCCCC(=O)CC(=O)N[C@H]1CCOC1=O [OdDHL, N-(3-oxo)-dodecanoyl HL, reference compound]?
A: slope of natural log of percent of positive control vs time [4]: −0.01399 ± 0.0006; racemization of the chiral center [6]: less than 5%

Q: With O=C(Cc1ccc(Br)cc1)N[C@H]1CCSC1=O [Compound 31] as the compound, how does the “TraR agonism in the antagonism assay” value (TraR [3]) read?
A: Its value is 60%.

Q: Which “agonistic activity in the TraR antagonism assay relative to OOHL” value (TraR [3]) does the source give for COc1ccc(CC(=O)N[C@H]2CCSC2=O)cc1 [Compound 29] here?
A: The value was 2 ×.

Q: For CCCCCCCC(=O)N[C@H]1CCSC1=O [Compound 22, N-octanoyl L-thiolactone], which “fold lower concentration than OHHL to antagonize LuxR by 50%” value (LuxR) is on record?
A: Its value is 10 fold.

Q: What about the “fold higher concentration than OdDHL to antagonize LasR by 50%” value (LasR [7]) of the same compound?
A: The value was 10 fold.
